Patent US9199939B2, “Quinoline amide M1 receptor positive allosteric modulators” (Merck Sharp & Dohme Corp., priority 2009, dated 2015)
pEC50: −log10 of the molar value. Read-outs that look alike come from different tables or passages of the source.

Biological target: T1, acetylcholine muscarinic M1 receptor (Homo sapiens, UniProt P11229)
T1 construct: expressed in transfected cells; host or cells: CHOnfat (CHO cells; also called CHOK1/hM1)
T1 sequence (P11229 1-460): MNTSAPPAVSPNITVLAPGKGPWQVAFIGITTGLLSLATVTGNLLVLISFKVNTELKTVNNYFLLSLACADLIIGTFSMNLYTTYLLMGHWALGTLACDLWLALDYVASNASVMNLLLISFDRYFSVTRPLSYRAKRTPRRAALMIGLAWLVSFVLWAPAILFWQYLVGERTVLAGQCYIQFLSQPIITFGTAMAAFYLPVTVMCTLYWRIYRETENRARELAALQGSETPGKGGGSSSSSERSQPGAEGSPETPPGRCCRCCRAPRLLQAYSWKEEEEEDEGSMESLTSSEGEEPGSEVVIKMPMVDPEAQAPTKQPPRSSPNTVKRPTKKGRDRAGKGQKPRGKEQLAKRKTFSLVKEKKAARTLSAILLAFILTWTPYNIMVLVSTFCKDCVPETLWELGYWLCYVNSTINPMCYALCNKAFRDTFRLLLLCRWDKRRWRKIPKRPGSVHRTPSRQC
Test: Muscarinic M1 FLIPR intracellular calcium assay for positive allosteric modulators
Assay type: cell-based
Experimental: The assay studies the effect of one or several concentrations of test compounds on basal or acetylcholine-stimulated Ca^2+ levels using FLIPR.
Compounds are prepared and subjected to a preincubation period of 4 min. Thereafter, a single EC20 concentration of acetylcholine is added to each well (3 nM final). The intracellular Ca^2+ level of each sample is measured and compared to an acetylcholine control to determine any modulatory activity.
Cells: CHOnfat/hM1, hM2, hM3 or hM4 cells are plated 24 hr before the assay at a density of 18,000 cells/well (100 μL) in a 384 well plate. CHOnfat/hM1 and CHOnfat/hM3 Growth Medium: 90% DMEM (Hi Glucose); 10% HI FBS; 2 mM L-glutamine; 0.1 mM NEAA; Pen-Strep; and 1 mg/ml Geneticin, are added. For M2Gqi5CHOnfat and M4Gqi5CHOnfat cells, an additional 600 ug/ml hygromycin is added.
Equipment: 384 well plate, 120 μL addition plate; 96-well Whatman 2 ml Uniplate Incubator, 37° C., 5% CO2; Skatron EMBLA-384 Plate Washer; Multimek Pipetting System; Genesis Freedom 200 System; Mosquito System; Temo Nanolitre Pipetting System; and FLIPR^384 Fluorometric Imaging Plate Reader System are used.
Buffers. Assay Buffer: Hanks Balanced Salt Solution, with 20 mM Hepes, 2.5 mM Probenecid (Sigma P-8761) first dissolved in 1 N NaOH, 1% Bovine Serum Albumin (Sigma A-9647). Dye Loading Buffer: Assay Buffer plus 1% Fetal Bovine Serum and Fluo-4AM/Pluronic Acid Mixture. 2 mM Fluo-4AM ester stock in DMSO (Molecular Probes F-14202) Concentration of 2 μM in buffer for a final concentration of 1 μM in Assay. 20% Pluronic Acid Solution stock, with concentration of 0.04% in Buffer, 0.02% in Assay.
65 μL of 2 mM Fluo-4AM are mixed with 130 μL of 20% Pluronic Acid. The resulting solution and 650 μL FBS is added to the assay buffer for a total volume of 65 mL. Positive Controls: 4-Br-A23187: 10 mM in DMSO; final concentration 10 μM. Acetylcholine: 10 mM in water, working stock at both 20 μM and 30 μM in assay buffer, final concentration of 10 μM. This is used to check the maximum stimulation of the CHOK1/hM1 cells. 20 μM (2×) acetylcholine is added in the preincubation part of the assay, and the 30 μM (3×) stock is added in the second part. (EC20)Acetylcholine: 10 mM in water, working stock of 9 nM (3×), and final concentration in assay is 3 nM. This is used after the preincubation with test compounds. Addition of the EC20 Acetylcholine to each well with a test compound will ascertain any modulator activity. 24 wells contain 3 nM Acetylcholine alone as a control.
Determining Activity of Putative Compounds:
Screening Plate Compounds are titrated in 96-well plates (columns 2-11), 100% DMSO, started at a concentration of 15 mM (150× stock concentration), and 3-fold serial dilutions using Genesis Freedom200 System. Four 96-well plates are combined into a 384-well plate using Mosquito Nanolitre Pipetting System by transferring 1 μl of serial diluted compounds to each well, and 1 mM acetylcholine (100× stock concentration) were added as a control. Using Temo, 49 μl assay buffer is added to each well of the 384-well plate right before assay.
In a 96-well Whatman 2 ml Uniplate, 9 nM Acetylcholine (3×) is pipetted into wells corresponding to the screening compounds, and into control wells. The 30 μM acetylcholine control (3×) is added into control wells, and the 3× agonist plate is transferred into a 384 well plate.
Cells are washed three times with 100 μL of buffer, leaving 30 μL of buffer in each well. Using Multimek, 30 μL of Dye Loading Buffer is added into each well and incubated at 37° C., 5% CO2 for up to one hr.
After 60 min, the cells are washed three times with 100 μL of buffer, leaving 30 μL of buffer in each well. The cell plate, screening plate, and agonist addition plates are placed on the platform in the FLIPR and the door closed. A signal test to check background fluorescence and basal fluorescence signal is performed. Laser intensity is adjusted if necessary. […]

[1] = IP = inflection point calculated from FLIPR values, CHOnfat/hM1 cells, 4 min preincubation, then EC20 acetylcholine (3 nM final), read-out: IP Value

O=C(N[C@H]1CCCC[C@@H]1O)c1cc(Cc2ccc(Cl)nc2)c2ccccc2n1 [Example 1, 4-[(6-Chloropyridin-3-yl)methyl]-N-[(1S,2S)-2-hydroxycyclohexyl]quinoline-2-carboxamide]
pEC50 [1]: 7.39

Cc1ccc(Cc2cc(C(=O)N[C@H]3CCCC[C@@H]3O)nc3ccccc23)cn1 [Example 2, N-[(1S,2S)-2-Hydroxycyclohexyl]-4-[(6-methylpyridin-3-yl)methyl]quinoline-2-carboxamide]
pEC50 [1]: 6.84

O=C(N[C@H]1CCCC[C@@H]1O)c1cc(Cc2ccc(Cl)nc2)c2ccccc2[n+]1[O-] [Example 3, 4-[(6-Chloropyridin-3-yl)methyl]-N-[(1S,2S)-2-hydroxycyclohexyl]quinoline-2-carboxamide 1-oxide]
pEC50 [1]: 6.83

O=C(N[C@H]1CCCC[C@@H]1O)c1cc(Cc2ccc(C3CC3)nc2)c2ccccc2n1 [Example 4, 4-[(6-Cyclopropylpyridin-3-yl)methyl]-N-[(1,2)-2-hydroxycyclohexyl]quinoline-2-carboxamide]
pEC50 [1]: 7.41

Cn1cc(-c2ccc(Cc3cc(C(=O)N[C@H]4CCCC[C@@H]4O)nc4ccccc34)cn2)cn1 [Example 5, N-[(1S,2S)-2-Hydroxycyclohexyl]-4-{[6-(1-methyl-1H-pyrazol-4-yl)pyridin-3-yl]methyl}quinoline-2-carboxamide]
pEC50 [1]: 8.22

O=C(N[C@H]1CCCC[C@@H]1O)c1cc(Cc2cccnc2)c2ccccc2n1 [Example 6, N-[(1S,2S)-2-Hydroxycyclohexyl]-4-(pyridin-3-ylmethyl)quinoline-2-carboxamide]
pEC50 [1]: 7.09

CSc1ccc(Cc2cc(C(=O)N[C@H]3CCCC[C@@H]3O)nc3ccccc23)cn1 [Example 7, N-[(1S,2S)-2-Hydroxycyclohexyl]-4-{[6-(inethylsulfanyl)pyridin-3-yl]methyl}quinoline-2-carboxamide]
pEC50 [1]: 7.43

Cn1cc(-c2ccc(Cc3cc(C(=O)N[C@H]4CCCC[C@@H]4O)nc4ccccc34)c[n+]2[O-])cn1 [Example 8, N-[(1S,2S)-2-Hydroxycyclohexyl]-4-{[6-(1-methyl-1H-pyrazol-4-yl)-1-oxidopyridin-3-yl]methyl}quinoline-2-carboxamide]
pEC50 [1]: 7.68

Cn1cc(-c2ccc(Cc3cc(C(=O)N[C@H]4CCCC[C@@H]4F)nc4ccccc34)cn2)cn1 [Example 9, N-[(1S,2S)-2-Fluorocyclohexyl]-4-{[6-(1-methyl-1H-pyrazol-4-yl)pyridin-3-yl]methyl}quinoline-2-carboxamide]
pEC50 [1]: 6.58

Cn1cc(-c2ccc(Cc3cc(C(=O)N[C@H]4COCC[C@@H]4O)nc4ccccc34)cn2)cn1 [Example 10, N-[(3S,4S)-4-Hydroxytetrahydro-2H-pyran-3-yl]-4-{[6-(1-methyl-1H-pyrazol-4-yl)pyridin-3-yl]methyl}quinoline-2-carboxamide]
pEC50 [1]: 7.77

COc1ccc(Cc2cc(C(=O)N[C@H]3CCOC[C@@H]3O)nc3ccccc23)cn1 [Example 11, N-[(3R,4S)-3-Hydroxytetrahydro-2H-pyran-4-yl]-4-[(6-methoxypyridin-3-yl)methyl]quinoline-2-carboxamide]
pEC50 [1]: 7.28

CCOc1ccc(Cc2cc(C(=O)N[C@H]3CCOC[C@@H]3O)nc3ccccc23)cn1 [Example 12, 4-[(6-Ethoxypyridin-3-yl)methyl]-N-[(3R,4S)-3-hydroxytetrahydro-2H-pyran-4-yl]quinoline-2-carboxamide]
pEC50 [1]: 7.22

COc1cc(Cc2cc(C(=O)N[C@H]3CCOC[C@@H]3O)nc3ccccc23)ccn1 [Example 13, N-[(3R,4S)-3-Hydroxytetrahydro-2H-pyran-4-yl]-4-[(2-methoxypyridin-4-yl)methyl]quinoline-2-carboxamide]
pEC50 [1]: 7.34

CSc1ncc(Cc2cc(C(=O)N[C@H]3CCOC[C@@H]3O)nc3ccccc23)cn1 [Example 14, N-[(3R,4S)-3-Hydroxytetrahydro-2H-pyran-4-yl]-4-{[2-(methylsulfanyl)pyrimidin-5-yl]methyl}quinoline-2-carboxamide]
pEC50 [1]: 6.50

COc1ccc(C(F)c2cc(C(=O)N[C@H]3CCOC[C@@H]3O)nc3ccccc23)cn1 (stereo partly drawn) [Example 15, 4-[Fluoro(6-methoxypyridin-3-yl)methyl]-N-[(3R,4S)-3-hydroxytetrahydro-2H-pyran-4-yl]quinoline-2-carboxamide hydrate]
pEC50 [1]: 7.28

O=C(N[C@H]1CCOC[C@@H]1O)c1cc(Cc2ccc(Cl)nc2)c2cccc(F)c2n1 [Example 16, 4-[(6-Chloropyridin-3-yl)methyl]-8-fluoro-N-[(3R,4S)-3-hydroxytetrahydro-2H-pyran-4-yl]quinoline-2-carboxamide]
pEC50 [1]: 7.66

O=C(N[C@H]1CCOC[C@@H]1O)c1cc(Cc2ccc(C(F)F)nc2)c2cccc(F)c2n1 [Example 17, 4-{[6-(Difluoromethyl)pyridin-3-yl]methyl}-8-fluoro-N-[(3R,4S)-3-hydroxytetrahydro-2H-pyran-4-yl]quinoline-2-carboxamide]
pEC50 [1]: 7.74

COc1ccc(C(F)c2cc(C(=O)N[C@H]3CCOC[C@@H]3O)nc3c(OC)cccc23)cn1 (stereo partly drawn) [Example 18, 4-[Fluoro(6-methoxypyridin-3-yl)methyl]-N-[(3R,4S)-3-hydroxytetrahydro-2H-pyran-4-yl]-8-methoxyquinoline-2-carboxamide]
pEC50 [1]: 6.61

COc1ccc(Cc2cc(C(=O)N[C@H]3CCOC[C@@H]3O)nc3c(F)cccc23)cn1 [Example 19, 8-Fluoro-N-[(3R,4S)-3-hydroxytetrahydro-2H-pyran-4-yl]-4-[(6-methoxypyridin-3-yl)methyl]quinoline-2-carboxamide]
pEC50: 7.72

O=C(N[C@H]1CCOC[C@@H]1O)c1cc(Cc2ccc(O)nc2)c2cccc(F)c2n1 [Example 20, 8-Fluoro-4-[(6-hydroxypyridin-3-yl)methyl]-N-[(3R,4S)-3-hydroxytetrahydro-2H-pyran-4-yl]quinoline-2-carboxamide]
pEC50 [1]: 7.19

COc1ccc(Cc2cc(C(=O)N[C@H]3CCOC[C@@H]3O)nc3c(F)cccc23)c[n+]1[O-] [Example 21, 8-Fluoro-N-[(3R,4S)-3-hydroxytetrahydro-2H-pyran-4-yl]-4-[(6-methoxy-1-oxidopyridin-3-yl)methyl]quinoline-2-carboxamide]
pEC50 [1]: 6.68

COc1cc(Cc2cc(C(=O)N[C@H]3CCOC[C@@H]3O)nc3c(F)cccc23)ccn1 [Example 22, 8-Fluoro-N-[(3R,4S)-3-hydroxytetrahydro-2H-pyran-4-yl]-4-[(2-methoxypyridin-4-yl)methyl]quinoline-2-carboxamide]
pEC50 [1]: 7.57
